Experimental data taken from publication PMC2796434 (Bioorganic & medicinal chemistry, 2008).

Target: T1, GV sPLA2 (Homo sapiens, UniProt P39877)
T1 sequence (P39877 21-138): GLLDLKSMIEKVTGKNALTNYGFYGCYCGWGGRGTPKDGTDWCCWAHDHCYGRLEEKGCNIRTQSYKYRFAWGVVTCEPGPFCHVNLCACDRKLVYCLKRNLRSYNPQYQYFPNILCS
Test: mixed-micelle radiolabelled phospholipid
Assay type: biochemical

- GV sPLA2: 0.003 ± 0.0004 mole fraction (XI(50))
Structure (SMILES): CCCC[C@H](CCC(=O)O)NC(=O)CCCCCCc1ccccc1 [compound 42, (R)-4-(7-Phenylheptanamido)octanoic acid]
